According to patent publication US11840531B2, “CDK8/19 inhibitors” (JOINT STOCK COMPANY “BIOCAD”, priority 2018, dated 2023):

How the values were obtained:
[1] = Permeability through Caco-2 cell monolayer; assay type: in vitro ADME; conditions: human; for Papp A→B at 2 h, 10 μM: Caco-2, A→B, pH 6.5/7.4, 2 hour incubation; for efflux ratio at 2 h, 10 μM: Caco-2, Papp B-A/Papp A-B
Experimental: Estimation of permeability through Caco-2 cell monolayer enables assessment of the ability of the substances to penetrate through biological membranes by means of both active and passive transport.
Intestinal epithelial cells Caco-2 were grown on filter inserts (pore size 0.4 jam, BD Falcon with High Density) for 21 days; monolayer integrity was then checked using Lucifer Yellow (Sigma-Aldrich, USA) according to the standard protocol. In A→B transfer (“intestinal lumen”-“blood stream” transfer), solutions of the test substances in buffer, pH 6.5 (HBSS, 10 mM HEPES, 15 mM glucose) at a concentration of 10 μM were added to the upper chamber; whereas the lower chamber was filled with buffer, pH 7.4 (HBSS, 10 mM HEPES, 15 mM Glucose, 1% BSA). In B→A transfer (“blood stream”-“intestinal lumen” transfer), the upper chamber was filled with buffer, pH 6.5, whereas the solutions of the test substances in buffer, pH 7.4, at a concentration of 10 μM were added to the lower chamber. A highly permeable substance propranolol was used as a control.
After 2 hour incubation at 37° C. under an atmosphere containing 5% CO2, the amounts of the test substances in the upper and lower chambers were measured by HPLC using an Agilent1200 HPLC system (Agilent, USA), proteins were preliminarily precipitated with acetonitrile. Chromatographic analysis was performed in a gradient elution regime with a flow rate of 1 mL/min. The peak areas corresponding to the compounds were detected on chromatograms. Based on the peak areas of a compound in the calibration standards, concentration of the compound in the initial solution and in the samples from upper chamber wells and lower chamber wells was measured.
Cellular permeability coefficient Papp was calculated by the formula: Papp=(Ca(t)*Va)/(Cd(0)*t*Area), where Papp is the effective permeability constant, m/s V is the volume of solution (0.8 ml in A→B test, 0.2 ml in B→A test), ml Area is the membrane surface area (0.33 cm^2), cm^2 t is the time of incubation (7200 sec), sec Cd(0) is the initial solution concentration, μM Ca(t) is the concentration of the solution after 2 hours (the concentration in the sample from the well of the lower chamber in A→B test; the concentration in the sample from the well of the top chamber in B→A test), μM
The value was calculated by the following formula: efflux=Papp B-A/Papp A-B, where Pape A-B-direct A→B test permeability value Papp B-A-reverse B→A test permeability value

[2] = Enzyme stability in human liver S9 fractions (Phase II); assay type: in vitro ADME; conditions: pH 7.4; 0.5 mg/mL pooled human liver S9 fractions, 10 μM compound, 37° C.; read-out: Enzyme stability Liver S9 fraction CLint
Experimental: Measuring of enzyme stability of the present compounds enabled estimation of their stability towards the action of Phase II biotransformation enzymes.
Enzyme degradation rate was measured by incubating the reaction mixture in a dry block thermostat at 37° C., said reaction mixture comprising 0.5 mg/mL of pooled human liver S9 fractions (XenoTech, USA, cat #H0610), 10 μM compound, 2 mM β-nicotinamide adenine dinucleotide (Carbosynth, UK, cat #NN10871) and 4 mM magnesium chloride in 0, 1 M sodium-phosphate buffer, pH=7, 4. The reaction was quenched with acetonitrile (100 μL of acetonitrile/100 μL of the reaction mixture). After quenching, the samples were centrifuged at 10000 rpm for 10 minutes. Supernatant fluid was tested by chromatographic technique using Agilent1200 (Agilent, USA). Chromatographic analysis was performed in a gradient elution regime with a flow rate of 1 mL/min A graph of the logarithm of substance's peak area as a function of time was made. The dependent factor of the line corresponded to the elimination rate constant K based on which the drug's half-life T½ and degradation rate CLint were calculated:
Based on the data obtained, candidates' enzyme stability in human liver S9 fractions was determined.

MV4-11 cells = experiment: Antiproliferative activity, MV4-11 cells (AlamarBlue); assay type: cell-based; conditions: Homo sapiens, 120 h incubation, read-out: MV-4-11 IC50
Experimental: Antiproliferative activity of CDK8 inhibitors according to the present invention was measured in a cell-based test on continuous cell cultures MV4-11 (biphenotypic myelomonocytic leukemia, ATCC® CRL-9591™), KG-1 (acute myeloid leukemia, ATCC® CCL-246™) using a vital stain AlamarBlue (ThermoFisher, #DAL1100). The cells were grown in RPMI-1640 (PanEco, #C330p) medium with addition of 10% FBS (Gibco, #16140-071); washed and resuspended in culture medium with 10% FBS (Gibco, #16140-071) in 96-well culture plates (Corning, #3599) with ≈10×10^3 cells in […] of medium per well. The compounds in question were dissolved in DMSO and diluted with a medium with 10% FBS (Gibco, #16140-071) to a final concentration ranging from 0 to 100 μM. […] of diluted compounds were then added to each well (final DMSO concentration was less than 1%) and incubated under 5% CO2 atmosphere at 37° C. for 120 h. After incubating, 15 μL/well of AlamarBlue (ThermoFisher, #DAL1100) reagent was added, contents of plates were mixed in an orbital shaker (Biosan, Latvia) and further incubated for 3-5 h at 37° C. under 5% CO2 atmosphere. Number of living cells was estimated using a microplate spectrophotometer (Tecan Infinite M200Pro, Switzerland) measuring fluorescent signal at the excitation wavelength (λEx) of 540 nm and emission wavelength (λEm) of 590 nm.
IC50 values were calculated using Magellan 7.2 software (Tecan, Switzerland) approximating experimental points by four-parameter logistic model with the optimization by Levenberg-Marquardt (Table 6).

Papp A→B at 2 h, 10 μM [1] | efflux ratio at 2 h, 10 μM [1] | microsomal CLint at 10 μM [2] | IC50 (MV4-11 cells) | SMILES
34.5 ×10⁻⁶ cm/s | 0.37 | 1.1 µL/min/mg | 3.4 nM | COCCn1cc(-c2ccc(-c3cnc(N)c4ncc(C(=O)NCC5CC5)cc34)cc2)cn1 [Compound 3.45, 8-amino-N-(cyclopropylmethyl)-5-(4-(1-(2-methoxyethyl)-1H-pyrazole-4-yl)phenyl)-1,7-naphthyridine-3-carboxamide]
36.2 ×10⁻⁶ cm/s | 0.64 | 2.5 µL/min/mg | 3.9 nM | COCCn1cc(-c2ccc(-c3cnc(N)c4ncc(C(=O)NC5CC5)cc34)cc2)cn1 [Compound 3.48]
18.7 ×10⁻⁶ cm/s | 1.66 | 2.4 µL/min/mg | 0.9 nM | CN(C)C(=O)Cn1cc(-c2ccc(-c3cnc(N)c4ncc(C(=O)N5CCC5)cc34)cc2)cn1 [Compound 3.52, 2-(4-(4-(8-amino-3-(azetidine-1-carbonyl)-1,7-naphthyridine-5-yl)phenyl)-1H-pyrazole-1-yl)-N,N-dimethylacetamide]
